US12590062B2, “PD-1/PD-L1 inhibitors” (Gilead Sciences, Inc., priority 2017, dated 2026)
pEC50, pIC50: −log10 of the molar value.

Tests used:
PD-1/PD-L1 = PD-1/PD-L1 (Homo sapiens, UniProt Q9NZQ7); test: PD-1/PD-L1 biochemical protein-protein interaction assay (ALPHA); assay type: binding; conditions: 0.3 nM His tagged PD-L1, 2.5 nM biotinylated Fc-PD-1, 60 minutes at 25° C., read-out: IC50 PD-L1-PD-1 Alpha IC50-mono PD-L1-fcP-D1
Outline: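 Extracellular-domain binding of His-tagged PD-L1 (0.3 nM final) to biotinylated Fc-PD-1 (2.5 nM final) was measured by ALPHA in 25 mM Hepes pH 7.4, 150 mM NaCl, 3.4 mM EDTA, 0.005% Tween 20, 0.01% BSA. After 60 min at 25° C, anti-His acceptor and streptavidin donor beads were added; IC50 from four-parameter fits.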

PD-1/PD-L1 interaction = target: T1, PD-1/PD-L1 interaction (Homo sapiens, UniProt Q9NZQ7); test: PD-1/PD-L1 NFAT reporter co-culture assay; assay type: cell-based; conditions: Jurkat PD-1 NFAT-luciferase cells co-cultured with aAPC-PD-L1 CHO cells, 6 hrs at 37° C.; read-out: EC50 NFAT Luciferase
T1 construct: expressed in transfected cells; host or cells: CHO cells (aAPC-PD-L1) co-cultured with Jurkat cells overexpressing PD-1 and an NFAT-luciferase reporter
Outline: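 Jurkat cells overexpressing PD-1 with NFAT-driven luciferase were mixed with compound in RPMI 1640/2% FBS and seeded onto overnight-plated CHO aAPC-PD-L1 cells expressing surface anti-CD3 and PD-L1. Co-culture ran 6 h at 37 °C; luminescence read with ONE-Glo; EC50 from four-parameter fit.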

PD-L1 = target: T2, PD-L1 (Homo sapiens, UniProt Q9NZQ7); test: PD-L1/PD-L1 dimerization biochemical protein-protein interaction assay (ALPHA); assay type: binding; conditions: compound-induced PD-L1 dimerization, head prints '1 nM' (0.5 nM His-tagged PD-L1 and 0.5 nM FLAG-tagged PD-L1), read-out: AC50 PDL1 Dimer Alpha 1 nM
T2 construct: determine if they can specifically dimerize the extracellular domains of PD-L1
Procedure: PD-L1/PD-L1 Dimerization Biochemical Protein-Protein Interaction Assay:
Compounds were tested in biochemical protein-protein interaction assays to determine if they can specifically dimerize the extracellular domains of PD-L1. Dimerization of the proteins (His-tagged PD-L1 and FLAG-tagged PD-L1) is measured using a bead based Amplified Luminescent Proximity Homogeneous Assay (ALPHA) platform. […] Assays are performed in 25 mM Hepes (pH 7.4), 150 mM NaCl, 3.4 mM EDTA, 0.005% Tween 20, and 0.01% BSA. Final protein concentration in the assays were 0.5 nM (His tagged PD-L) and 0.5 nM (FLAG tagged PD-L1). After an assay reaction time of 2 hours at 25° C., 20 μg/mL (final assay concentration) ALPHA assay acceptor beads (anti-His coated) were added and incubated for 60 minutes at 25° C. Binding was measured following a final 60 minute incubation with 40 μg/mL (final assay concentration) ALPHA assay donor beads (anti-FLAG coated). AC50 values were calculated from the fit of the dose-response curves to a four-parameter equation (Table 3).

Sequence of PD-1/PD-L1 (Q9NZQ7 19-238 limits assumed): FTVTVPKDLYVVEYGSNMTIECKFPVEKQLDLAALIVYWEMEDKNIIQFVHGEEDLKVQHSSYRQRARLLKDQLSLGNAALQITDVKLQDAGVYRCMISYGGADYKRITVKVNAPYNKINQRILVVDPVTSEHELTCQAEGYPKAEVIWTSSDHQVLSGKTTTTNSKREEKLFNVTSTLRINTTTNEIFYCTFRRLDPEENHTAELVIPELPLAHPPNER
T2 sequence (Q9NZQ7 19-238 limits assumed): as above
T2 sequence (Q9NZQ7 19-238 limits assumed): as above
T1 sequence (Q9NZQ7 19-290): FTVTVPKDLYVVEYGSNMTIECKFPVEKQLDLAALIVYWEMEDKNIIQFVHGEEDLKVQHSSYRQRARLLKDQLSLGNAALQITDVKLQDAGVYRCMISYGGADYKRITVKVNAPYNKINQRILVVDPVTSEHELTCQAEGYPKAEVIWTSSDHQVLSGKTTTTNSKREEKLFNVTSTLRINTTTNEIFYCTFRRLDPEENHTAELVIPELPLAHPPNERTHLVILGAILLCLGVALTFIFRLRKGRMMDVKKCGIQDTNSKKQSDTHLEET

Row | SMILES | pIC50 (PD-1/PD-L1) | pEC50 (PD-1/PD-L1 interaction) | AC50 (PD-L1)
1 | Cc1c(COc2cc(OCc3cncc(C#N)c3)c(CN[C@@](C)(CO)C(=O)O)cc2Cl)cccc1-c1cccc(-c2cnc3c(Cl)cc(CN[C@@](C)(CO)C(=O)O)cc3c2)c1C [Example 296, (S)-2-(((3-(3′-((4-((((S)-2-carboxy-1-hydroxypropan-2-yl)amino)methyl)-2-chloro-5-((5-cyanopyridin-3-yl)methoxy)phenoxy)methyl)-2,2′-dimethyl-[1,1′-biphenyl]-3-yl)-8-chloroquinolin-6-yl)methyl)amino)-3-hydroxy-2-methylpropanoic acid] | 10.19 | 6.07 | 108 nM
2 | Cc1c(COc2cc(OCc3cncc(C#N)c3)c(CNC[C@@H](O)CC(=O)O)cc2Cl)cccc1-c1cccc(-c2cnc3c(Cl)cc(CNC[C@@H](O)CC(=O)O)cc3c2)c1C [Example 297, (S)-4-(((3-(3′-((4-((((S)-3-carboxy-2-hydroxypropyl)amino)methyl)-2-chloro-5-((5-cyanopyridin-3-yl)methoxy)phenoxy)methyl)-2,2′-dimethyl-[1,1′-biphenyl]-3-yl)-8-chloroquinolin-6-yl)methyl)amino)-3-hydroxybutanoic acid] | 9.73 | 6.58 | 187 nM
3 | Cc1c(COc2cc(OCc3cncc(C#N)c3)c(CN[C@@](C)(CO)C(=O)O)cc2Cl)cccc1-c1cccc(-c2ccc3[nH]c([C@@H]4CCCN4)nc3c2)c1C [Example 299, (S)-2-((5-chloro-2-((5-cyanopyridin-3-yl)methoxy)-4-((2,2′-dimethyl-3′-(2-((S)-pyrrolidin-2-yl)-1H-benzo[d]imidazol-5-yl)-[1,1′-biphenyl]-3-yl)methoxy)benzyl)amino)-3-hydroxy-2-methylpropanoic acid] | 9.12 | 6.49 | 162 nM
4 | Cc1c(COc2cc(OCc3cncc(C#N)c3)c(CNC[C@@H](O)CC(=O)O)cc2Cl)cccc1-c1cccc(-c2ccc(CCN3CCCC3)cc2)c1C [Example 300, (S)-4-((5-chloro-2-((5-cyanopyridin-3-yl)methoxy)-4-((2,2′-dimethyl-4″-(2-(pyrrolidin-1-yl)ethyl)-[1,1′:3′,1″-terphenyl]-3-yl)methoxy)benzyl)amino)-3-hydroxybutanoic acid] | 9.17 | 5.43 | 223 nM
5 | Cc1c(COc2cc(OCc3cncc(C#N)c3)c(CN[C@@](C)(CO)C(=O)O)cc2Cl)cccc1-c1c(F)ccc(-c2ccc(CN(C)C)cc2)c1Cl [Example 301, (2S)-2-((5-chloro-4-((2′-chloro-4″-((dimethylamino)methyl)-6′-fluoro-2-methyl-[1,1′:3′,1″-terphenyl]-3-yl)methoxy)-2-((5-cyanopyridin-3-yl)methoxy)benzyl)amino)-3-hydroxy-2-methylpropanoic acid] | 9.96 | 5.99 | 95.9 nM
6 | Cc1c(COc2cc(OCc3cncc(C#N)c3)c(CN[C@](C)(CO)C(=O)O)cc2Cl)cccc1-c1cccc(-c2ccc(OC3CN4CCC3CC4)cc2)c1C (stereo partly drawn) [Example 302, (2R)-2-((5-chloro-2-((5-cyanopyridin-3-yl)methoxy)-4-((2,2′-dimethyl-4″-(quinuclidin-3-yloxy)-[1,1′:3′,1″-terphenyl]-3-yl)methoxy)benzyl)amino)-3-hydroxy-2-methylpropanoic acid] | 9.46 | 6.55 | 76.2 nM
7 | CS(=O)(=O)c1cncc(COc2nc(OCc3cccc(-c4cccc(-c5ccc(OCCNCCO)cc5)c4Cl)c3Cl)c(Cl)cc2CN2C[C@@H](O)C[C@H]2C(=O)O)c1 [Example 303, (2S,4S)-1-((5-chloro-6-((2,2′-dichloro-4″-(2-((2-hydroxyethyl)amino)ethoxy)-[1,1′:3′,1″-terphenyl]-3-yl)methoxy)-2-((5-(methylsulfonyl)pyridin-3-yl)methoxy)pyridin-3-yl)methyl)-4-hydroxypyrrolidine-2-carboxylic acid] | 9.78 | 6.54 | 101 nM
8 | CC(C)(NCc1cc(Cl)c(OCc2cccc(-c3cccc(-c4ccc(OCCNCCO)cc4)c3Cl)c2Cl)nc1OCc1cncc(S(C)(=O)=O)c1)C(=O)O [Example 304, 2-(((5-chloro-6-((2,2′-dichloro-4″-(2-((2-hydroxyethyl)amino)ethoxy)-[1,1′:3′,1″-terphenyl]-3-yl)methoxy)-2-((5-(methylsulfonyl)pyridin-3-yl)methoxy)pyridin-3-yl)methyl)amino)-2-methylpropanoic acid] | 10.19 | 7.10 | 16.5 nM
9 | Cc1c(COc2nc(OCc3cncc(C#N)c3)c(CN[C@@](C)(CO)C(=O)O)cc2Cl)cccc1-c1cccc(-c2ccc3c(c2)CC[C@@]3(CO)N(C)C)c1C [Example 305, (S)-2-(((5-chloro-2-((5-cyanopyridin-3-yl)methoxy)-6-((3′-((R)-1-(dimethylamino)-1-(hydroxymethyl)-2,3-dihydro-1H-inden-5-yl)-2,2′-dimethyl-[1,1′-biphenyl]-3-yl)methoxy)pyridin-3-yl)methyl)amino)-3-hydroxy-2-methylpropanoic acid] | 9.80 | 5.75 | 150 nM
10 | Cc1c(COc2nc(OCc3cncc(C#N)c3)c(CNCCO)cc2Cl)cccc1-c1cccc(-c2ccc(C(O)CN(C)C)cc2)c1C (stereo not drawn) [Example 306, 5-(((5-chloro-6-((4″-(2-(dimethylamino)-1-hydroxyethyl)-2,2′-dimethyl-[1,1′:3′,1″-terphenyl]-3-yl)methoxy)-3-(((2-hydroxyethyl)amino)methyl)pyridin-2-yl)oxy)methyl)nicotinonitrile] | 8.71 | 6.26 | 292 nM
11 | COc1nc(-c2cccc(-c3cccc(COc4cc(OCc5cncc(C#N)c5)c(CN5CC[C@@H](O)C5)cc4Cl)c3C)c2C)ccc1CNC[C@@H](O)CC(=O)O [Example 307, (S)-4-(((6-(3′-((2-chloro-5-((5-cyanopyridin-3-yl)methoxy)-4-(((R)-3-hydroxypyrrolidin-1-yl)methyl)phenoxy)methyl)-2,2′-dimethyl-[1,1′-biphenyl]-3-yl)-2-methoxypyridin-3-yl)methyl)amino)-3-hydroxybutanoic acid] | 9.27 | 6.15 | 599 nM
12 | Cc1c(COc2cc(OCc3cncc(C#N)c3)c(CN3CC[C@@H](O)C3)cc2Cl)cccc1-c1cccc(-c2ccc(CNC[C@@H](O)CC(=O)O)cc2)c1C [Example 308, (S)-4-(((3″-((2-chloro-5-((5-cyanopyridin-3-yl)methoxy)-4-(((R)-3-hydroxypyrrolidin-1-yl)methyl)phenoxy)methyl)-2′,2″-dimethyl-[1,1′:3′,1″-terphenyl]-4-yl)methyl)amino)-3-hydroxybutanoic acid] | 9.46 | 6.43 | 203 nM
13 | Cc1c(COc2cc(OCc3cncc(C#N)c3)c(CN3CC[C@@H](O)C3)cc2Cl)cccc1-c1cccc(-c2ccc(OCCNC[C@@H](O)CC(=O)O)cc2)c1C [Example 309, (S)-4-((2-((3″-((2-chloro-5-((5-cyanopyridin-3-yl)methoxy)-4-(((R)-3-hydroxypyrrolidin-1-yl)methyl)phenoxy)methyl)-2′,2″-dimethyl-[1,1′:3′,1″-terphenyl]-4-yl)oxy)ethyl)amino)-3-hydroxybutanoic acid] | 9.77 | 6.62 | 103 nM
14 | Cc1c(COc2cc(OCc3cncc(C#N)c3)c(CN[C@](C)(CO)C(=O)O)cc2Cl)cccc1-c1cccc(-c2ccc(OCCNCCO)c(S(C)(=O)=O)c2)c1C [Example 310, (R)-2-((5-chloro-2-((5-cyanopyridin-3-yl)methoxy)-4-((4″-(2-((2-hydroxyethyl)amino)ethoxy)-2,2′-dimethyl-3″-(methylsulfonyl)-[1,1′:3′,1″-terphenyl]-3-yl)methoxy)benzyl)amino)-3-hydroxy-2-methylpropanoic acid] | 10.16 | 6.67 | 121 nM
15 | Cc1c(COc2cc(OCc3cncc(C#N)c3)c(CN[C@@](C)(CO)C(=O)O)cc2Cl)cccc1-c1cccc(-c2ccc(OCCNCCO)cc2)c1C [Example 311, (S)-2-((5-chloro-2-((5-cyanopyridin-3-yl)methoxy)-4-((4″-(2-((2-hydroxyethyl)amino)ethoxy)-2, 2′-dimethyl-[1, 1′:3′,1″-terphenyl]-3-yl)methoxy)benzyl)amino)-3-hydroxy-2-methylpropanoic acid] | 10.19 | 6.98 | 75.5 nM
